We go through one compound from patent US9555016B2, “Lytic agents for use in treating intravascular clots” (priority 2013, dated 2017).

The subject of test [1] is acute clots, formed from ovine blood. In words: Gravimetric testing of lytic resistance of acute clots. The procedure: (§1) Acute clots, formed from ovine blood, were formed and treated with guanidine hydrochloride. Clots were formed following the general procedures set forth in Luo et al., “Creation Of Fibrinogen-Enhanced Experimental Blood Clots To Evaluate Mechanical Thrombectomy Devices For Treatment Of Acute Stroke: An In Vitro Study,” J. Vase. Interv. Radiol. 2012 August; 23(8): 1077-83. Briefly, ovine blood was contacted with about […] thrombin and about 25 mM calcium chloride. Additional acute clots were formed where about 40 mg/ml fibrinongen was first added to the ovine blood.
Gravimetric testing to determine lytic resistance of the clots was carried out as follows. Briefly, an incubation shaker was heated to about 37° C. Clots were allowed to rest at a temperature of about 4° C. for 24 hours prior to testing. About 200-300 mg of clot samples were weighed out, with 1 sample placed per well in a 24 well plate. Weights were recorded.
Guanidine hydrochloride solutions were prepared as follows:
1. 12 M Guanidine hydrochloride (GH): 22.93 g GH+20 ml 0.9% sodium chloride
2. 6 M GH: 10 ml 12 M GH+10 ml 0.9% sodium chloride
3. 3 M GH: 10 ml 6 M GH+10 ml 0.9% sodium chloride
4. 1 M GH: 10 ml 3 M GH+20 ml 0.9% sodium chloride
6. 0.5 M GH: 10 ml 1 M GH+10 ml 0.9% sodium chloride
About 1 ml of each solution was placed in each well. […] The weight was recorded at each time point. […]

For test [2] the test system is unchanged. In words: Mechanical compression testing (Texture Analyzer) of acute clots. As to conditions: acute blood clot, after 1 hour of treatment. The procedure:
as §1
Guanidine chloride at concentrations of 6 M and 12 M in 0.9% sodium chloride were added to the clots, with untreated clots and clots treated with 0.2 mg/ml tPA used as controls.
The clots were subjected to mechanical testing to determine the effects of the guanidine chloride on the hardness of the clot, as well as its elasticity and lytic resistance. Briefly, a Texture Analyzer manufactured by Texture Technologies Corporation, running Exponent Software from Texture Technologies Corporation was used. […] Clot samples having a thickness of about 1 mm were prepared and placed underneath the probe, until the probe was about 3 mm above the sample surface. The Texture Analyzer subjected the sample to a 0.5 mm compression test, and then a 1 mm compression test. […]

Test [3] deals with chronic clots, formed of collagen. The test is described as follows: Mechanical compression testing (Texture Analyzer) of chronic collagen clots. The method, then:
The clots were subjected to mechanical testing to determine the effects of the guanidine chloride on the hardness of the clot, as well as its elasticity and lytic resistance. Briefly, a Texture Analyzer manufactured by Texture Technologies Corporation, running Exponent Software from Texture Technologies Corporation was used. […] Clot samples having a thickness of about 1 mm were prepared and placed underneath the probe, until the probe was about 3 mm above the sample surface. The Texture Analyzer subjected the sample to a 0.5 mm compression test, and then a 1 mm compression test. Chronic clots, formed of collagen, were formed and treated with guanidine hydrochloride. Chronic collagen clots were formed by reverse dialysis, as generally disclosed in Knight, et al., “In vitro formation by reverse dialysis of collagen gels containing highly oriented arrays of fibrils,” J. Biomed. Mater. Res., 41, 185-191 (1998). Briefly, about 1.5 grams collagen was combined with about 45 ml distilled water and 5 ml of 0.5 M acetic acid. A dialysis solution was prepared with 2% polyethylene glycol (PEG) in about 10 mM of a Tris base buffer (2000 ml distilled water added to 40 grams PEG and 2.422 grams Tris Base (also known as Trimethylol Aminomethane, Tris(hydroxymethyl)aminomethane)). […] Fibril formation was allowed to proceed over a period of about 48 hours, at which time the collagen was collected and stored in about 10 mM Tris-base solution at a pH of about 7.4 and stored at about 4° C. Additional chronic clots were prepared by combining collagen gels produced as above, and then adding genipin thereto (about 5 mM genipin solution in about 0.9% sodium chloride). Chronic clots thus formed were subjected to the hardness and gravimetric tests described above in Example 1.

The test system is the same in test [4]. The test is described as follows: Gravimetric testing of lytic resistance of chronic collagen clots. The procedure: Gravimetric testing to determine lytic resistance of the clots was carried out as follows. Briefly, an incubation shaker was heated to about 37° C. Clots were allowed to rest at a temperature of about 4° C. for 24 hours prior to testing. About 200-300 mg of clot samples were weighed out, with 1 sample placed per well in a 24 well plate. Weights were recorded. About 1 ml of each solution was placed in each well. The plate was then placed into the incubation shaker and shaken at 160 rpm for 1 hour and 3 hours. The weight was recorded at each time point. Lytic resistance was defined as follows, as the percent clot remaining: [formula] Chronic clots, formed of collagen, were formed and treated with guanidine hydrochloride. Chronic collagen clots were formed by reverse dialysis, as generally disclosed in Knight, et al., “In vitro formation by reverse dialysis of collagen gels containing highly oriented arrays of fibrils,” J. Biomed. Mater. Res., 41, 185-191 (1998). Briefly, about 1.5 grams collagen was combined with about 45 ml distilled water and 5 ml of 0.5 M acetic acid. A dialysis solution was prepared with 2% polyethylene glycol (PEG) in about 10 mM of a Tris base buffer (2000 ml distilled water added to 40 grams PEG and 2.422 grams Tris Base (also known as Trimethylol Aminomethane, Tris(hydroxymethyl)aminomethane)). […]

[5] abbreviates: chronic clots prepared without genipin.

Molecules are shown by their SMILES. Structures can show the parent of a compound that is named as a salt.

Take `N=C(N)N` [guanidine hydrochloride]: the “clot weight (summary of gravimetric testing)” value in test [1] (acute blood-based clot models, increased concentrations) is “did not show a decrease in weight”. Further, the “lytic resistance versus molar concentration” value in test [1] (acute clots, increasing molar concentration of guanidine hydrochloride) is given as “lytic resistance decreased upon increase in the molar concentration”. Moreover, the “effect on hardness (summary, FIG. 2)” value in test [2] is “significant effect on the hardness”. Moreover, in test [3] (setting [5]), the elasticity after treatment result is “dissolved/broken down to a point where elasticity could not be measured” and the hardness after treatment entry is listed as “dissolved/broken down to a point where hardness could not be measured”. In addition, in test [3] (chronic collagen clots), the “effect on hardness (summary, FIG. 3)” value is “significant decrease in hardness”. The “lytic resistance versus molar concentration” value in test [4] (chronic clots, increasing molar concentration of guanidine hydrochloride) was “lytic resistance decreased upon increase in the molar concentration”. Also, the “dissolution of clot (summary)” value in test [4] (chronic collagen-based clots, after 1 hour, even at low concentrations) is recorded as “dissolve most of the collagen clot models”.
